The nature of data set [1]: Stability in human microsomes. In kind it is ADME, Microsome.
A short description of data set [2]: Plasma clearance in Sprague-Dawley rat at 1 mg/kg, iv and 2 mg/kg, po. In kind it is ADME, organism-based.
Data set [3] in a line: Volume of distribution in Sprague-Dawley rat at 1 mg/kg, iv and 2 mg/kg, po. It counts as ADME, organism-based. The settings on record: in vivo.
A short description of data set [4]: AUC in Sprague-Dawley rat at 2 mg/kg, po. It counts as ADME, organism-based. Also on record: dose 2 mg/kg, route oral. The conditions noted are these: plasma.
The nature of data set [5]: Half life in Sprague-Dawley rat at 1 mg/kg, iv and 2 mg/kg, po. In kind it is ADME, organism-based. The conditions noted are these: in vivo.
Data set [6] in a line: Cmax in Sprague-Dawley rat at 2 mg/kg, po. It counts as ADME, organism-based. Also on record: dose 2 mg/kg, route oral. The conditions noted are these: in vivo.
The subject of data set [7] is Rattus norvegicus. Briefly: Oral bioavailability in Sprague-Dawley rat at 2 mg/kg. It counts as ADME, organism-based. The settings on record: in vivo.

The record followed here is ChEMBL document CHEMBL3098026, “Synthesis and SAR of novel isoxazoles as potent c-jun N-terminal kinase (JNK) inhibitors” (Bioorg Med Chem Lett, 2014).

The term AUC denotes concentration integrated over time. Usually half-life stands for the time needed for the level to fall by half in the phase considered. As usually defined, the Cmax is the peak of the concentration-time curve.

As for `Oc1onc(-c2ccnc(Nc3ccc(N4CCOCC4)cc3)c2)c1-c1ccc(F)cc1`, in data set [1], the Stability entry was “Unstable”.
In the case of `Cc1ncn(-c2ccc(Nc3cc(-c4nocc4-c4cnn(C)c4)ccn3)cc2)n1`, the clearance in data set [2] was 6 mL/min/kg. The compound further returned a Vd in data set [3] of 0.4 L/kg. In addition, the AUC in data set [4] was 5 µM·h. The compound also had a half-life in data set [5] of 1.5 h. The same compound displayed a peak concentration (Cmax) in data set [6] of 1500 nM. In data set [7], the F is listed as 37%.
In turn, `Cc1ncn(-c2ccc(Nc3cc(-c4nocc4-c4cn[nH]c4C)ccn3)cc2)n1` registered a clearance in data set [2] of 13 mL/min/kg. In data set [3], the Vd was 0.4 L/kg. Also, the AUC in data set [4] turned out to be 0.7 µM·h. In data set [5], this compound gave a half-life of 1.8 h. The compound also showed a maximum concentration (Cmax) in data set [6] of 300 nM. Besides, in data set [7], the F stood at 12%.
